Entries after “also recorded” stand apart in the source; their conditions may differ.

These results are taken from US9597407B2, “Targeted antimicrobial moieties” (C3 Jian, Inc., priority 2009, dated 2017).

The subject of the test is bacteria. Put plainly: Binding of targeting peptides to microorganisms (Table 3). As to conditions: peptide binding in aqueous buffers varied by peptide solubility; preferably 1x PBS.
As to “1T-44 (DPALADFAAGMRAQVRT; Peptide with targeting and/or antimicrobial activity) [Peptide 1T-44]”, the “Target(s) (microorganism bound by the targeting peptide)” value is recorded as “S. mutans; also recorded: S. aureus; also recorded: S. epidermidis; also recorded: C. jeikeium; also recorded: C. striatum; also recorded: P. aeruginosa”.

With “1T-45 (WTKPSFTDLRLGFEVTLYFANR; Peptide with targeting and/or antimicrobial activity) [Peptide 1T-45]”, the “Target(s) (microorganism bound by the targeting peptide)” value is reported as “S. aureus; also recorded: S. epidermidis; also recorded: C. striatum; also recorded: P. aeruginosa”.

On to “1T-46 (FSFKQRVMFRKEVERLR; Peptide with targeting and/or antimicrobial activity) [Peptide 1T-46]”, for which the “Target(s) (microorganism bound by the targeting peptide)” value is given as “S. aureus; also recorded: S. epidermidis; also recorded: C. jeikeium; also recorded: C. xerosis; also recorded: C. striatum; also recorded: P. aeruginosa”.

As to “1T-47 (VIKISVPGQVQMLIP; Peptide with targeting and/or antimicrobial activity) [Peptide 1T-47]”, the “Target(s) (microorganism bound by the targeting peptide)” value is recorded as “S. mutans; also recorded: S. epidermidis; also recorded: P. aeruginosa”.

Take “1T-48 (KLQVHHGRATHTLLLQPPLCAPGTIR; Peptide with targeting and/or antimicrobial activity) [Peptide 1T-48]”: the “Target(s) (microorganism bound by the targeting peptide)” value is listed as “S. aureus; also recorded: S. epidermidis; also recorded: C. jeikeium; also recorded: C. xerosis; also recorded: C. striatum; also recorded: P. aeruginosa”.

On to “1T-49 (SLVRIHDQQPWVTRGAFIDAARTCS; Peptide with targeting and/or antimicrobial activity) [Peptide 1T-49]”, for which the “Target(s) (microorganism bound by the targeting peptide)” value is recorded as “S. aureus; also recorded: S. epidermidis; also recorded: C. jeikeium; also recorded: P. aeruginosa”.

“1T-50 (HSDEPIPNILFKSDSVH; Peptide with targeting and/or antimicrobial activity) [Peptide 1T-50]”: the “Target(s) (microorganism bound by the targeting peptide)” value is “P. aeruginosa”.

“1T-51 (GKPKRMPAEFIDGYGQALLAGA; Peptide with targeting and/or antimicrobial activity) [Peptide 1T-51]”: the “Target(s) (microorganism bound by the targeting peptide)” value is “S. aureus; also recorded: P. aeruginosa”.

As to “1T-52 (DEYPAKLPLSDKGATEPRRH; Peptide with targeting and/or antimicrobial activity) [Peptide 1T-52]”, the “Target(s) (microorganism bound by the targeting peptide)” value is “S. aureus; also recorded: C. xerosis; also recorded: P. aeruginosa”.

Take “1T-53 (SDILAEMFEKGELQTLVKDAAAKANA; Peptide with targeting and/or antimicrobial activity) [Peptide 1T-53]”: the “Target(s) (microorganism bound by the targeting peptide)” value is on record as “P. aeruginosa”.

For the substance “1T-54 (RWVSCNPSWRIQ; Peptide with targeting and/or antimicrobial activity) [Peptide 1T-54]”, the “Target(s) (microorganism bound by the targeting peptide)” value is “S. epidermidis; also recorded: C. xerosis; also recorded: C. striatum; also recorded: P. aeruginosa”.

In the case of “1T-55 (NHKTLKEWKAKWGPEAVESWATLLG; Peptide with targeting and/or antimicrobial activity) [Peptide 1T-55]”, the “Target(s) (microorganism bound by the targeting peptide)” value is “C. xerosis; also recorded: P. aeruginosa”.

Consider “1T-56 (LALIGAGIWMIRKG; Peptide with targeting and/or antimicrobial activity) [Peptide 1T-56]”, for which the “Target(s) (microorganism bound by the targeting peptide)” value is on record as “C. xerosis; also recorded: P. aeruginosa”.

As to “1T-57 (RLEYRRLETQVEENPESGRRPMRG; Peptide with targeting and/or antimicrobial activity) [Peptide 1T-57]”, the “Target(s) (microorganism bound by the targeting peptide)” value was “P. aeruginosa”.

With “1T-58 (CDDLHALERAGKLDALLSA; Peptide with targeting and/or antimicrobial activity) [Peptide 1T-58]”, the “Target(s) (microorganism bound by the targeting peptide)” value is on record as “P. aeruginosa”.

Regarding “1T-59 (AVGNNLGKDNDSGHRGKKHRKHKHR; Peptide with targeting and/or antimicrobial activity) [Peptide 1T-59]”, the “Target(s) (microorganism bound by the targeting peptide)” value is reported as “S. aureus; also recorded: S. epidermidis; also recorded: P. aeruginosa”.

In the case of “1T-60 (YLTSLGLDAAEQAQGLLTILKG; Peptide with targeting and/or antimicrobial activity) [Peptide 1T-60]”, the “Target(s) (microorganism bound by the targeting peptide)” value is on record as “S. aureus; also recorded: S. epidermidis; also recorded: C. jeikeium; also recorded: C. striatum; also recorded: P. aeruginosa”.

“1T-61 (HATLLPAVREAISRQLLPALVPRG; Peptide with targeting and/or antimicrobial activity) [Peptide 1T-61]”: the “Target(s) (microorganism bound by the targeting peptide)” value is given as “P. aeruginosa”.

Regarding “1T-62 (GCKGCAQRDPCAEPEPYFRLR; Peptide with targeting and/or antimicrobial activity) [Peptide 1T-62]”, the “Target(s) (microorganism bound by the targeting peptide)” value was “S. epidermidis; also recorded: P. aeruginosa”.

As for “1T-63 (EPLILKELVRNLFLFCYARALR; Peptide with targeting and/or antimicrobial activity) [Peptide 1T-63]”, the “Target(s) (microorganism bound by the targeting peptide)” value was “S. aureus; also recorded: S. epidermidis; also recorded: C. jeikeium; also recorded: C. xerosis; also recorded: C. striatum; also recorded: P. aeruginosa”.

Regarding “1T-64 (QTVHHIHMHVLGQRQMHWPPG; Peptide with targeting and/or antimicrobial activity) [Peptide 1T-64]”, the “Target(s) (microorganism bound by the targeting peptide)” value is on record as “S. aureus; also recorded: S. epidermidis; also recorded: C. jeikeium; also recorded: C. xerosis; also recorded: C. striatum; also recorded: P. aeruginosa”.

As for “1T-65 (HARAAVGVAELPRGAAVEVELIAAVRP; Peptide with targeting and/or antimicrobial activity) [Peptide 1T-65]”, the “Target(s) (microorganism bound by the targeting peptide)” value was “S. mutans; also recorded: S. aureus; also recorded: S. epidermidis; also recorded: C. jeikeium; also recorded: C. xerosis; also recorded: C. striatum; also recorded: P. aeruginosa”.

As for “1T-66 (DTDCLSRAYAQRIDELDKQYAGIDKPL; Peptide with targeting and/or antimicrobial activity) [Peptide 1T-66]”, the “Target(s) (microorganism bound by the targeting peptide)” value is reported as “S. mutans; also recorded: S. aureus; also recorded: S. epidermidis; also recorded: C. jeikeium; also recorded: C. xerosis; also recorded: C. striatum; also recorded: P. aeruginosa”.

“1T-67 (GQRQRLTCGRVSGCSEGPSREAAR; Peptide with targeting and/or antimicrobial activity) [Peptide 1T-67]”: the “Target(s) (microorganism bound by the targeting peptide)” value is reported as “S. aureus; also recorded: S. epidermidis; also recorded: C. jeikeium; also recorded: C. xerosis; also recorded: C. striatum; also recorded: P. aeruginosa”.

Turning to “1T-68 (GGTKEIVYQRG; Peptide with targeting and/or antimicrobial activity) [Peptide 1T-68]”, the “Target(s) (microorganism bound by the targeting peptide)” value was “S. mutans; also recorded: S. aureus; also recorded: C. jeikeium; also recorded: C. xerosis; also recorded: C. striatum; also recorded: P. aeruginosa”.

“1T-69 (ILSQEADRKKLF; Peptide with targeting and/or antimicrobial activity) [Peptide 1T-69]”: the “Target(s) (microorganism bound by the targeting peptide)” value was “S. mutans; also recorded: P. aeruginosa”.

Regarding “1T-70 (NRQAQGERAHGEQQG; Peptide with targeting and/or antimicrobial activity) [Peptide 1T-70]”, the “Target(s) (microorganism bound by the targeting peptide)” value is reported as “S. aureus; also recorded: C. jeikeium; also recorded: P. aeruginosa”.

“1T-71 (KIDTNQWPPNKEG; Peptide with targeting and/or antimicrobial activity) [Peptide 1T-71]”: the “Target(s) (microorganism bound by the targeting peptide)” value is given as “P. aeruginosa”.

On to “1T-72 (EPTDGVACKER; Peptide with targeting and/or antimicrobial activity) [Peptide 1T-72]”, for which the “Target(s) (microorganism bound by the targeting peptide)” value is on record as “P. aeruginosa”.

For “1T-73 (GWWEELLHETILSKFKITKALELPIQL; Peptide with targeting and/or antimicrobial activity) [Peptide 1T-73]”, the “Target(s) (microorganism bound by the targeting peptide)” value is “S. pneumoniae”.

Take “1T-74 (DIDWGRKISCAAGVAYGAIDGCATTV; Peptide with targeting and/or antimicrobial activity) [Peptide 1T-74]”: the “Target(s) (microorganism bound by the targeting peptide)” value is “S. pneumoniae”.

Consider “1T-75 (GVARGLQLGIKTRTQWGAATGAA; Peptide with targeting and/or antimicrobial activity) [Peptide 1T-75]”, for which the “Target(s) (microorganism bound by the targeting peptide)” value is reported as “S. pneumoniae”.

Regarding “1T-76 (EMRLSKFFRDFILWRKK; Peptide with targeting and/or antimicrobial activity) [Peptide 1T-76]”, the “Target(s) (microorganism bound by the targeting peptide)” value was “S. pneumoniae”.

“1T-77 (EMRISRIILDFLFLRKK; Peptide with targeting and/or antimicrobial activity) [Peptide 1T-77]”: the “Target(s) (microorganism bound by the targeting peptide)” value is reported as “S. pneumoniae”.

On to “1T-78 (FFKTIFVLILGALGVAAGLYIEKNYIDK; Peptide with targeting and/or antimicrobial activity) [Peptide 1T-78]”, for which the “Target(s) (microorganism bound by the targeting peptide)” value is listed as “S. pneumoniae”.

In the case of “1T-79 (FGTPWSITNFWKKNFNDRPDFDSDRRRY; Peptide with targeting and/or antimicrobial activity) [Peptide 1T-79]”, the “Target(s) (microorganism bound by the targeting peptide)” value was “S. pneumoniae”.

“1T-80 (GGNLGPGFGVIIP; Peptide with targeting and/or antimicrobial activity) [Peptide 1T-80]”: the “Target(s) (microorganism bound by the targeting peptide)” value is reported as “S. pneumoniae”.

Turning to “1T-81 (AIATGLDIVDGKFDGYLWA; Peptide with targeting and/or antimicrobial activity) [Peptide 1T-81]”, the “Target(s) (microorganism bound by the targeting peptide)” value is given as “S. pneumoniae”.

On to “1T-82 (FGVGVGIALFMAGYAIGKDLRKKFGKSC; Peptide with targeting and/or antimicrobial activity) [Peptide 1T-82]”, for which the “Target(s) (microorganism bound by the targeting peptide)” value was “S. pneumoniae”.
